Where a SMILES comes first, the peptide text is derived from it. The star is where a group is joined. X1 = CC1(C)C(=CC=C2CCCC(C=CC3=[N+](CCCCCC(=O)O)c4ccccc4C3(C)C)=C2*)N(CCCCCC(=O)O)c2ccccc21
What was measured:
H460 tumour-bearing mice = format: in vivo, mouse; details: IV 14 mg/kg; for retention efficiency in tumour up to 48 h post injection: integrated fluorescence in tumour normalized to 1 h, n = 3, repeated three times
Protocol: Animal experiments were performed in accordance with the Guide for the Care and Use of Laboratory Animals and approved by the Institutional Animal Care and Use Committee (IACUC) of the National Center for Nanoscience and Technology (NCNST), China. Female Balb/c nude mice (6–8 weeks, 18–22 g) were purchased from Vital River Laboratory Animal Technology Co. Ltd. H460 cells were subcutaneously implanted into these mice on the right flank. Then the mice were randomly grouped (n = 3). When the tumour grew to a single aspect of about 0.5 cm, we injected the molecules 1, 2 and 3 intravenously in the same dose of 14 mg/kg in PBS solution, respectively. Fluorescence images were measured by a Maestro II in vivo imaging system (CRi) at 1, 2, 4, 6, 8, 12, 24, 48, 72, 96 and 120 h post injection. Further, tumours and other major organs (i.e., heart, liver, spleen, lung and kidney) were collected for ex vivo fluorescence imaging at 48 h post injection. The organ biodistribution of the 1, 2 and 3 was examined using H460 xenografts mice. The mice were sacrificed at 2, 4, 8, 12, 24 or 48 h post injection. Finally, all the major organs and tumour were collected, weighed, and homogenized (0.3 mL of lysis buffer per 100 mg of tissues). The homogeneous tissue solutions were obtained for fluorescence imaging by IVIS Spectrum CT. Known concentrations of compound 1, 2 or 3 are used to make the standard curve (concentration from 2.8 to 25.2 μg/mL), the “Predicted R-Squared” value of 0.99. Then we utilized this standard curve to measure the molecule content in each tissue. In addition, EJ xenograft tumour mice model was built, as above described, to validate the generality of the strategy.
Supplementary Figure 31∣ Representative NIR fluorescence images of H460 tumour-bearing mice after intravenous administration with molecules 1, 2 and 3 (14 mg/kg, n = 3). Images were acquired at 1 h, 4 h, 12 h, 24 h 48 h, 72 h, 96 h and 120 h post injection (p.i.). The yellow circles marked the same size of the tumour region.
(§1) (1 picture or pasted object on this page, not shown here)
Supplementary Figure 32∣ Representative NIR fluorescence images o f H460 tumour-bearing mice after intravenous administrat ed with molecules 1 (14 mg/kg, n = 3) in three groups (In order to test the repeatability of the results, we chose different batches of mice to repeat trials . They were named 1-group, 2-group and 3-group, respectively.). Images were acquired at 1 h, 4 h, 12 h, 24 h 48 h and 72 h post injection (p.i.). All data were obtained by n ormalized fluorescence intensity in tumour. Data are presented as the mean ± s.d. (n= 3).

H460 cells [1] = format: cell-based, human; details: 50 μM for 6, 12, 24 h (flow cytometry), 1–100 μM 24 h (CCK-8)
Protocol: lysed in an ice bath at 1℃, 16000g for 15 minutes, the supernatant was transferred to a pre-cooled centrifuge tube in an ice bath. For each group, 20 μM (final concentration) Ac-DEVD-AMC and 100μl cell lysate were added to 1 ml Protease Assay Buffer [20 mM HEPES (pH 7.5), 10% glycerol, 2 mM DTT]. The reaction mixtures were incubated for 1 hour at 37 °C. The AMC released from Ac-DEVD-AMC was measured using a spectrofluorometer with an excitation wavelength of 380 nm and an emission wavelength range of 400-550 nm.
Flow cytometry analysis. A density of 1 × 10^5 H460 cells per well were seeded in the 6-well plates in 1640 medium which contains 10% fetal bovine serum and 1% penicillin–streptomycin, then cultured at 37 °C in a humidified atmosphere with 5% CO 2 for 16 h. Then molecules 1, 2 and 3 (50 μM) were added to each well, and the cells were incubated for additional 6 h, 12 h and 24 h, respectively. The apoptosis of the collected cells stained by Annexin V -FITC and PI (propidium iodide) was studied by […]
Cell viability assays . CCK-8 (cell counting kit-8) assay was carried out to investigate the cell viability.
H460 cells were utilized to evaluate the cytotoxicity of molecules 1, 2 and 3 by the CCK-8 assay.
Molecules 1, 2 and 3 were dispersed in 1640 medium with different concentration s such as 1, 5, 10, 30, 60 and 100 μM. The cells with the density of 5 × 10^4 cells per well were seeded in the 96 -well plates in 1640 medium containing 10% fetal bovine serum and 1% penicillin –streptomycin, then cultured at 37 °C in a humidified atmosphere with 5% CO 2 for 16 h. […]
Microplate reader was used to measure the UV -Vis absorptions of sample wells (A sample), Ablack and control wells (A control) at a test wavelength of 450 nm and a reference wavelength of 690 nm, […]
Blood circulation. […] The supernatant of the blood samples was collected by centrifugation at 10 000 rpm for 10 min , and the content of compound 1, 2 and 3 in the supernatant w ere determined using fluorescence spectrophotometric measurement. […]
3 h. […] Morphologies of liposomes were measured by Tecnai G20 electron microscope. […]

H460 cells [2] = assay: Flow cytometry labelling ratio of subcultured cells; format: cell-based, human; details: 50 μM, 37 °C, 2 h; for labelling ratio of H460 cells at the third generation: subcultured at 24 h interval
Protocol: Supplementary Figure 24∣Flow cytometry histograms of H460 cells treated with molecule 1, 2 and
3 (50 μM) at 37 °C for 2 h, respectively, and then subcultured for designated generations (a 24 h
interval). The untreated H460 cells were used as the control group.
as §1

| Structure (SMILES) | retained tumour signal on the fifth day relative to molecules 2 and 3 (H460 tumour-bearing mice) [fold] | retention efficiency in tumour up to 48 h post injection (H460 tumour-bearing mice) | fluorescence signal retained in tumour on the fifth day (H460 tumour-bearing mice; normalized fluorescence intensity in tumour) | apoptotic cell death (flow cytometry and cell viability assays) (H460 cells [1]) | labelling ratio of H460 cells at the first generation (H460 cells [2]; compared to untreated cells) [%] | labelling ratio of H460 cells at the third generation (H460 cells [2]) |
| --- | --- | --- | --- | --- | --- | --- |
| CC[C@H](C)[C@H](NC(=O)[C@@H]1CCCN1C(=O)[C@@H](NC(=O)[C@H](C)N)C(C)C)C(=O)N[C@@H](C)C(=O)N[C@@H](CCC(N)=O)C(=O)N[C@@H](CCCCN)C(=O)N[C@@H](CC(=O)O)C(=O)N[C@@H](CCC(=O)O)C(=O)N[C@H](C(=O)N[C@@H](CC(=O)O)C(=O)N[C@@H](CCCCN)C(=O)N[C@@H](CC(C)C)C(=O)N[C@H](C(=O)N[C@@H](Cc1ccccc1)C(=O)N[C@@H](Cc1ccccc1)C(=O)N[C@@H](C)C(=O)N[C@@H](CCC(=O)O)C(=O)N[C@@H](CSC1=C(C=CC2=[N+](CCCCCC(=O)O)c3ccccc3C2(C)C)CCCC1=CC=C1N(CCCCCC(=O)O)c2ccccc2C1(C)C)C(=O)NCC(=O)O)C(C)C)C(C)C [molecule 1] (H-AVPIAQKDEVDKLVFFAEC(X1)G-OH) | ~2.5 | approximately 22.0% | over 16.0% | No apoptosis was observed | 100 | above 16.4% |
| CC[C@H](C)[C@H](NC(=O)[C@@H]1CCCN1C(=O)[C@@H](NC(=O)[C@H](C)N)C(C)C)C(=O)N[C@@H](C)C(=O)N[C@@H](CCC(N)=O)C(=O)N[C@@H](CCCCN)C(=O)N[C@@H](CC(=O)O)C(=O)N[C@@H](CCC(=O)O)C(=O)N[C@H](C(=O)N[C@@H](CC(=O)O)C(=O)N[C@@H](CCC(=O)O)C(=O)N[C@@H](CSC1=C(C=CC2=[N+](CCCCCC(=O)O)c3ccccc3C2(C)C)CCCC1=CC=C1N(CCCCCC(=O)O)c2ccccc2C1(C)C)C(=O)NCC(=O)O)C(C)C [molecule 3] (H-AVPIAQKDEVDEC(X1)G-OH; N-terminus assumed) |  | less than 10.0% |  | No apoptosis was observed |  | 3.89% |
| CSCC[C@H](N)C(=O)N[C@@H](CC(=O)O)C(=O)N[C@@H](CCC(=O)O)C(=O)N[C@@H](CCCCN)C(=O)N[C@@H](C)C(=O)N[C@@H](CCC(N)=O)C(=O)N[C@@H](CCCCN)C(=O)N[C@@H](CC(=O)O)C(=O)N[C@@H](CCC(=O)O)C(=O)N[C@H](C(=O)N[C@@H](CC(=O)O)C(=O)N[C@@H](CCCCN)C(=O)N[C@@H](CC(C)C)C(=O)N[C@H](C(=O)N[C@@H](Cc1ccccc1)C(=O)N[C@@H](Cc1ccccc1)C(=O)N[C@@H](C)C(=O)N[C@@H](CCC(=O)O)C(=O)N[C@@H](CSC1=C(C=CC2=[N+](CCCCCC(=O)O)c3ccccc3C2(C)C)CCCC1=CC=C1N(CCCCCC(=O)O)c2ccccc2C1(C)C)C(=O)NCC(=O)O)C(C)C)C(C)C [molecule 2] (H-MDEKAQKDEVDKLVFFAEC(X1)G-OH; N-terminus assumed) |  | less than 10.0% |  | No apoptosis was observed |  | 6.83% |
